Assay results reported in US7067552B2, “Radiosensitizing taxanes and their pharmaceutical preparations” (Florida State University, priority 1995, dated 2006).
Several values for one entry are separate records, joined by “and”; a condition that tells them apart may be missing. Equal entries are not always repeated. Entries after “also recorded” stand apart in the source; their conditions may differ. Where two headings read alike, the source gives them in different places.

Columns and labels:
[1] = In vivo drug toxicity (acute toxicity); details: C3H/HeJ, mouse, in vivo, ip
HCT-116 cells = assay: In vitro chemotherapeutic radiosensitization, HCT-116 cells; format: cell-based, human; details: for radiosensitization of HCT-116 cells (in words): different radiation doses; for sensitizer enhancement ratio (SER): irradiated after two hours incubation
MTG-B tumor = format: in vivo, C3H/Hej mice
C3H/HeJ mice [2] = details: mouse, in vivo
CHO cells = assay: In vitro chemotherapeutic radiosensitization, CHO cells; format: cell-based, Chinese hamster; details: for radiosensitization of CHO cells (in words): different radiation doses; for sensitizer enhancement ratio (SER): irradiated after two hours incubation
[3] = tested on: mouse mammary adenocarcinoma (MTG-B); assay: In vivo chemotherapeutic activity in MTG-B tumor bearing mice; parameters: species or system C3H/Hej mice
[4] = tested on: Chinese hamster ovary (CHO) cells; assay: In vitro chemotherapeutic activity, colony forming assay, CHO cells; format: cell-based; details: at the 50% survival level; 37° C. for 24 hours
Experimental: (§1) 4.1. In vitro chemotherapeutic activity. Chinese hamster ovary (CHO) and human colon carcinoma (HCT-116) cells were treated with different concentrations of taxol, taxoltere metro, or taxoltere p-nip at 37° C. for 24 hours. Cell survival was evaluated by the colony forming assay.

C3H/HeJ mice [5] = assay: In vivo drug toxicity (acute toxicity); details: for LD50/5: C3H/HeJ mice
MTG-B mammary tumors = tested on: MTG-B mammary tumors; parameters: species or system mice; details: mouse, in vivo, ip
[6] = tested on: human colon carcinoma (HCT-116) cells; assay: In vitro chemotherapeutic activity, colony forming assay, HCT-116 cells; format: cell-based; details: at the 1% survival level; 37° C. for 24 hours
Experimental: as §1

Molecule	radiosensitization of HCT-116 cells (in words) (HCT-116 cells)	radiosensitization of CHO cells (in words) (CHO cells)	times more effective than taxol in killing CHO cells [4]	LD50/5 (C3H/HeJ mice [5]; i.p.) [mg/kg]	tumor doubling time (TDT) (MTG-B tumor; mouse, in vivo, ip)	times more effective than taxol in killing HCT-116 cells [6]	increase of survival time / life span ([3]; mouse, in vivo) [%]	survival time ([3]; mouse, in vivo) [days]	times more effective than taxol under equitoxic conditions ([3]; mouse, in vivo) [times]	tumor doubling times (in words) ([3]; mouse, in vivo)	other results
CC(=O)O[C@H]1C(=O)[C@@]2(C)[C@H]([C@H](OC(=O)c3ccccc3)[C@]3(O)C[C@H](OC(=O)[C@H](O)[C@@H](NC(=O)c4ccccc4)c4ccccc4)C(C)=C1C3(C)C)[C@]1(OC(C)=O)CO[C@@H]1C[C@@H]2O [taxol, reference compound]	does not	does not									LD50 at 5 days [1]: 141 mg/kg; tumor doubling time (TDT) (MTG-B tumor; single dose i.p., 40% of LD50/5, drug alone, control 3.5 days): 14.5 days; tumor doubling time (TDT) (MTG-B tumor; single dose i.p., 40% of LD50/5, plus 22 Gy Xray one day later, 22 Gy alone 8.5 days): 19.5 days; Severe toxic symptoms (constriction of pupils, rough hair) (C3H/HeJ mice [2]): observed; survival time ([3]; 40% of the LD50/5 dose, MTG-B tumor-bearing mice, control 13 days): 17 days; increase of survival time / life span ([3]; 40% of the LD50/5 dose, versus control 13 days): 31%
N-debenzoyl-N-(t-butylcarbamoyl)-3′-desphenyl-3′-(4-nitrophenyl) taxol [taxoltere p-nip]	strongly radiosensitize	strongly radiosensitize	about 45 times	79.13	36.5 days and 65 days	about 30 times	1015	145	33	even further extended; also recorded: again greatly extended	LD50/5 (C3H/HeJ mice [5]; i.v.): 134.16 mg/kg; sensitizer enhancement ratio (SER) (HCT-116 cells; concentration not given): 1.5; tumor doubling time (MTG-B tumor; mouse, in vivo, iv): 52 days; sensitizer enhancement ratio (SER) (CHO cells; concentration not given): 1.6; cure rate (MTG-B mammary tumors): 40% and 75%
N-debenzoyl-N-(t-butylcarbamoyl)-7-(metronidazoleoxycarbonyl) taxol [taxoltere metro]	strongly radiosensitize	strongly radiosensitize	about 15 times	249.67	20.5 days and 29.5 days	about 10 times	123	29	4	again greatly extended	Severe toxic symptoms (constriction of pupils, rough hair) (C3H/HeJ mice [5]; 24 hours after drug administration, high drug dose levels): not; sensitizer enhancement ratio (SER) (HCT-116 cells; 10 nM): 1.2; sensitizer enhancement ratio (SER) (CHO cells; 100 nM): 2.3
